Experimental data as given in patent publication US6355631B1, “Pharmaceutical compositions containing azetidine derivatives, novel azetidine derivatives and their preparation” (Aventis Pharma S.A., priority 2000, dated 2002).

| melting point [°C] | Structure (SMILES) |
| --- | --- |
| 171 | O=[SH](=O)N(Cc1ccccc1)CC1CN(C(c2ccc(Cl)cc2)c2ccc(Cl)cc2)C1 [Example 23, N-Benzyl-N-{1-[bis(4-chlorophenyl)methyl]azetidin-3-yl}methylsulfonamide] |
| 98 | O=[SH](=O)N(Cc1cc(F)cc(F)c1)C1CN(C(c2ccc(F)cc2)c2ccc(F)cc2)C1 [Example 34, N-{1-[Bis(4-fluorophenyl)methyl]azetidin-3-yl}-N-(3,5-difluorophenyl)methylsulfonamide] |
